# Assay results reported in US6359133B2, “Halogen pyrimidinyl aryl (thio) ethers as pesticides” (Bayer Aktiengesellschaft, priority 1996, dated 2002).
# Experiments:
# Pyriculaia oryzae = assay type: in vivo; conditions: rice, protective, 750 g/ha, evaluation 4 days after inoculation, vs untreated control
# [1] = system: Erysiphe graminis f.sp. hordei; assay: Erysiphe test (barley)/protective; assay type: in vivo; conditions: protective, 250 g/ha, evaluation 7 days after inoculation, vs untreated control
# Experimental: Erysiphe Test (barley)/Protective Solvent: 10 parts by weight of N-methyl-pyrrolidone. Emulsifier: 0.6 part by weight of alkylaryl polyglycol ether. To produce a suitable preparation of active compound, 1 part by weight of active compound is mixed with the stated amounts of solvent and emulsifier, and the concentrate is diluted with water to the desired concentration. To test for protective activity, young plants are sprayed with the preparation of active compound at the stated application rate. After the spray coating has dried on, the plants are dusted with spores of Erysiphe graminis f.sp. hordei.
# [2] = logP determination by HPLC (EEC Directive 79/831 Annex V. A8); conditions: gradient method, acetonitrile/0.1% aqueous phosphoric acid
Structure (SMILES),efficacy (Pyriculaia oryzae),further results
"CNC(=O)/C(=N/OC)c1ccccc1Oc1ncnc(Oc2ccccc2Cl)c1F [Example 1, 2-{2-[6-(2-chlorophenoxy)-5-fluoro-pyrimidine4-yloxy]-phenyl}-2-methoxyimino-N-methylacetamide]",80%,–
"CNC(=O)/C(=N/OC)c1ccccc1Oc1ncnc(Oc2ccccc2C)c1F [Example 2, 2-[2-(5-fluoro-6-o-tolyloxy-pyrimidin-4-yloxy)-phenyl]-2-methoxyimino-N-methyl-acetamide]",80%,chromatographic logP (physchem): 3.04; efficacy [1]: 100%
CNC(=O)C(=NOC)c1ccccc1Oc1ncnc(Oc2ccccc2C#N)c1F [Example 4],80%,–
C=CCOc1ccccc1Oc1ncnc(Oc2ccccc2C(=NOC)C(=O)NC)c1F [Example 8],80%,efficacy [1]: 100%
CCC(=O)Oc1ccccc1Oc1ncnc(Oc2ccccc2C(=NOC)C(=O)NC)c1F [Example 9],80%,–
CON=C(C(N)=O)c1ccccc1Oc1ncnc(Oc2ccccc2Cl)c1F [Example 10],80%,–
CNC(=O)C(=NOC)c1ccccc1Oc1ncnc(Oc2ccc(Cl)cc2Cl)c1F [Example 15],–,logP [2]: 3.61
CNC(=O)C(=NOC)c1ccccc1Oc1ncnc(Oc2cc(C)ccc2C)c1F [Example 20],80%,–
CNC(=O)C(=NOC)c1ccccc1Oc1ncnc(Oc2c(C)cccc2C)c1F [Example 21],80%,–
CNC(=O)C(=NOC)c1ccccc1Oc1ncnc(Oc2ccc(C)cc2Cl)c1F [Example 22],80%,–
CNC(=O)C(=NOC)c1ccccc1Oc1ncnc(Oc2cccc(Cl)c2C)c1F [Example 24],80%,–
"CO/N=C(/C(N)=O)c1ccccc1O [Example II-1, 2-(2-hydroxy-phenyl)-2-methoxyimino-acetamide]",–,chromatographic logP (physchem): 0.83
